Columns and labels:
[1] = biological target: myosin V (S1) 6IQ construct (Gallus gallus, UniProt Q02440); format: binding
[2] = biological target: myosin V (S1) 1IQ construct (Gallus gallus, UniProt Q02440); format: binding
Sequence of myosin V (S1) 1IQ construct (Q02440 whole entry, looked up): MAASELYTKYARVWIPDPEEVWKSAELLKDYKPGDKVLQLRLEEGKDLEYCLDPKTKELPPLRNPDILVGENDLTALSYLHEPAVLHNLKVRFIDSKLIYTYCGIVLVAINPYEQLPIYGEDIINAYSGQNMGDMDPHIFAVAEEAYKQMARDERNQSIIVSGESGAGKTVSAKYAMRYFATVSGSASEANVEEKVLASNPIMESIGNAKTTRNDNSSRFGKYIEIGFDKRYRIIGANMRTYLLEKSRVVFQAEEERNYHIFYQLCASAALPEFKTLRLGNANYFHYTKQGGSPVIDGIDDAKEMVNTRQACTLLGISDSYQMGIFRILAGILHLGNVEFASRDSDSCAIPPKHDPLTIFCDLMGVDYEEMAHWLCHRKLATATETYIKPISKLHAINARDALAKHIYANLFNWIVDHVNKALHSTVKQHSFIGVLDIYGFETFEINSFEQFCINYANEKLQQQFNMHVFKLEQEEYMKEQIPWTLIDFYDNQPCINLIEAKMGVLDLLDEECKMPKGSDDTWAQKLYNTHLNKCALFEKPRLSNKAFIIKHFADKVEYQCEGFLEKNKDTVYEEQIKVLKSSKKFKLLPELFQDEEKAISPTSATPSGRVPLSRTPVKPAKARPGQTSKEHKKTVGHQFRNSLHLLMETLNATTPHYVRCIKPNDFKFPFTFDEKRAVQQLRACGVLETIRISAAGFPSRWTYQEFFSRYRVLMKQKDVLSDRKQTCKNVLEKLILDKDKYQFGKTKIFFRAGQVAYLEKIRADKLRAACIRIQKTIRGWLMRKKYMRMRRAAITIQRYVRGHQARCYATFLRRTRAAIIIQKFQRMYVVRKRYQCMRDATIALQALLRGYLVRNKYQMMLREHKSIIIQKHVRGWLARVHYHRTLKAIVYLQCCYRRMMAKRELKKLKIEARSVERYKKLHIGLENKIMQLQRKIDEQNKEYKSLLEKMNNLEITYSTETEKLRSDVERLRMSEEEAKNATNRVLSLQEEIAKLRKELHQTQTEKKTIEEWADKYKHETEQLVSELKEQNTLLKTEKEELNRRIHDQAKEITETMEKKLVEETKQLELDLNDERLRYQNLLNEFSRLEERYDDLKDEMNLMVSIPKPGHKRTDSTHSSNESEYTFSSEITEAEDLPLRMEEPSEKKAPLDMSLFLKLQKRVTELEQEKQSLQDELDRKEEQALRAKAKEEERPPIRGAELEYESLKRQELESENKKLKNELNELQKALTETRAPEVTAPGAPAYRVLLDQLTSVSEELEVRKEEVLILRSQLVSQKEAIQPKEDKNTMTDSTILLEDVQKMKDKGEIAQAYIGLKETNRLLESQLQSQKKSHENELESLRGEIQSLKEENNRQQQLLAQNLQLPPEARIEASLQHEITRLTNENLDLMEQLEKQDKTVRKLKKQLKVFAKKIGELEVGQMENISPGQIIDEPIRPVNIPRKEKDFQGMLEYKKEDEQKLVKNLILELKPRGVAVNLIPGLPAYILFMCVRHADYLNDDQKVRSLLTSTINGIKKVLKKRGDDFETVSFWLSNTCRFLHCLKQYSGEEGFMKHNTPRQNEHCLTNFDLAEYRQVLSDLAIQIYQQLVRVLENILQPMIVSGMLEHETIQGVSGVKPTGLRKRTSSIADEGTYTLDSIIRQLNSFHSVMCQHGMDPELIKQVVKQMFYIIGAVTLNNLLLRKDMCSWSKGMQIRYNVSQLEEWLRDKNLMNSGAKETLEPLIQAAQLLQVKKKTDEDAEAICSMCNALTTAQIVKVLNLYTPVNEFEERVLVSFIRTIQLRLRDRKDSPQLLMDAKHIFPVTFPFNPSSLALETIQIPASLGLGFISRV

Sequence of myosin V (S1) 6IQ construct (Q02440 whole entry, looked up): as above

Kd [1]: ~1000 nM
Kd [2]: 2400 ± 1700 nM
SMILES: Nc1ncnc2c1ncn2[C@@H]1O[C@H](COP(=O)(O)OP(=O)(O)O)[C@@H](O)[C@H]1O [ADP]
